Laboratory results from article PMC10018608 (Signal Transduction and Targeted Therapy, 2023).
Read-outs that look alike come from different tables or passages of the source.

Experiments:
in vitro [1] = format: in vitro ADME; conditions: human, microsomes, HLM 0.5 mg/mL, 1 μM; for remaining at 0 h: 0 min, read-out: Percent Remaining (%) 0 min; for remaining at 0 h / remaining at 5 min / remaining at […] / remaining at 0.5 h / remaining at 0.75 h / remaining at 1 h: Mean; for remaining at 5 min: read-out: Percent Remaining (%) 5 min; for remaining at […]: 15 min, read-out: Percent Remaining (%) 15 min; for remaining at 0.5 h: 30 min, read-out: Percent Remaining (%) 30 min; for remaining at 0.75 h: 45 min, read-out: Percent Remaining (%) 45 min; for remaining at 1 h: 60 min, read-out: Percent Remaining (%) 60 min; for CLint scaled: scaling factor 1254.2
in vitro [2] = format: cell-based
Description: Cells were seeded and grown in 96 well plates overnight. Then various concentrations of compounds in fresh medium were added and incubated for 72 h. Using MTT (Sigma) assay to determine the cell viability.

[3] = SD rats
in vivo = conditions: male, Sprague-Dawley, rat
SARS-CoV-2 (BA.5) = assay: microbe, parasite or virus in culture; format: cell-based; conditions: Severe acute respiratory syndrome coronavirus 2, VeroE6-TMPRSS2, read-out: EC50 (plaque reduction)
SARS-CoV-2 (BA.2) = assay: Plaque reduction assay in VeroE6-TMPRSS2; format: cell-based; conditions: Severe acute respiratory syndrome coronavirus 2
SARS-CoV-2 (B.1.1.7) = assay: Plaque reduction assay in VeroE6-TMPRSS2; format: cell-based; conditions: Severe acute respiratory syndrome coronavirus 2
SARS-CoV-2 (B.1.351) = assay: Plaque reduction assay in VeroE6-TMPRSS2; format: cell-based; conditions: Severe acute respiratory syndrome coronavirus 2
SARS-CoV-1 = assay: microbe, parasite or virus in culture; format: cell-based; conditions: Severe acute respiratory syndrome coronavirus, VeroE6/TMPRSS2, read-out: EC50 (plaque reduction)
MERS-CoV = assay: microbe, parasite or virus in culture; format: cell-based; conditions: Middle East respiratory syndrome-related coronavirus, VeroE6/TMPRSS2, read-out: EC50 (plaque reduction)
in vitro [4] = format: in vitro ADME, human; conditions: human, plasma
[5] = African green monkey, VeroE6, MTT, 72 h

Compound	half-life (in vitro [1]) [h]	remaining at 0 h (in vitro [1]) [%]	remaining at 5 min (in vitro [1]) [%]	remaining at […] (in vitro [1]) [%]	remaining at 0.5 h (in vitro [1]) [%]	remaining at 0.75 h (in vitro [1]) [%]	remaining at 1 h (in vitro [1]) [%]	CLint scaled (in vitro [1]) [mL/min/kg]	CC50 (in vitro [2]; [5]) [µM]	CC50 (in vitro [2]; human, BEAS-2B, MTT, 72 h) [µM]	CC50 (in vitro [2]; human, HUVEC, MTT, 72 h) [µM]	MTRlast ([3]; i.v. (1 mg/kg)) [h]	Vzobs ([3]; i.v. (1 mg/kg)) [L/kg]	MTRlast ([3]; p.o. (10 mg/kg)) [h]	AUC(0-inf) (in vivo; iv, 1 mg/kg) [ng·h/mL]	AUC(0-t) (in vivo; iv, 1 mg/kg) [ng·h/mL]	Cmax (in vivo; iv, 1 mg/kg) [ng/mL]	Tmax (in vivo; iv, 1 mg/kg) [h]	clearance (in vivo; iv, 1 mg/kg) [mL/min/kg]	half-life (in vivo; iv, 1 mg/kg) [h]	also measured
O=C(CC1CC(F)(F)C1)NCC(=O)N[C@H](Cc1ccccc1)C(=O)C(=O)NCc1nccs1 [3q]	0.426	100	86	63.1	40.1	30.3	19.1	68.1	–	–	–	–	–	–	–	–	–	–	–	–	–
C[C@@H](NC(=O)C1CCC(F)(F)CC1)C(=O)N[C@H](Cc1ccccc1)C(=O)C(=O)NCc1nccs1 [3r]	0.594	100	91.5	73.2	51	39.1	32.5	48.8	> 500	> 500	> 500	1.31 ± 0.54	3.05 ± 2.08	4.89 ± 1.14	1020 ± 262	1010 ± 258	1110 ± 70	0.08	17 ± 3.8	2.41 ± 2.24	AUC(0-inf) (in vivo; po, 10 mg/kg): 2840 ± 327 ng·h/mL; AUC(0-t) (in vivo; po, 10 mg/kg): 2570 ± 679 ng·h/mL; Cmax (in vivo; po, 10 mg/kg): 306 ± 32.1 ng/mL; Tmax (in vivo; po, 10 mg/kg): 2.67 ± 1.15 h; bioavailability (in vivo; po, 10 mg/kg): 25.4 ± 6.71%; half-life (in vivo; po, 10 mg/kg): 3.01 ± 0.91 h
C[C@@H](NC(=O)C1CCCC(F)(F)C1)C(=O)N[C@H](Cc1ccccc1)C(=O)C(=O)NCc1nccs1 (some centres unmarked) [3s]	0.424	100	81.7	64.2	42	28.4	18.9	68.4	–	–	–	–	–	–	–	–	–	–	–	–	–
C[C@@H](NC(=O)C1CCC(F)(F)C1)C(=O)N[C@H](Cc1ccccc1)C(=O)C(=O)NCc1nccs1 (some centres unmarked) [3t]	0.704	100	89.1	73.5	56.2	46.2	37	41.2	> 500	> 500	> 500	1.26 ± 0.42	2.49 ± 1.61	5.90 ± 0.79	1330 ± 556	1290 ± 531	1320 ± 168	0.08	14.5 ± 7.25	1.9 ± 0.27	AUC(0-inf) (in vivo; po, 10 mg/kg): 6900 ± 2620 ng·h/mL; AUC(0-t) (in vivo; po, 10 mg/kg): 6720 ± 2460 ng·h/mL; Cmax (in vivo; po, 10 mg/kg): 635 ± 161 ng/mL; Tmax (in vivo; po, 10 mg/kg): 1.67 ± 0.58 h; bioavailability (in vivo; po, 10 mg/kg): 52 ± 19.1%; half-life (in vivo; po, 10 mg/kg): 4.15 ± 1.48 h
C[C@@H](NC(=O)CC1CC(F)(F)C1)C(=O)N[C@H](Cc1ccccc1)C(=O)C(=O)NCc1nccs1 [3u]	–	–	–	–	–	–	–	–	> 500	> 500	> 500	3.19 ± 0.31	3.65 ± 0.74	6.57 ± 0.38	2250 ± 672	2200 ± 634	1570 ± 201	0.08	7.95 ± 2.8	5.47 ± 0.77	AUC(0-inf) (in vivo; po, 10 mg/kg): 8700 ± 1120 ng·h/mL; AUC(0-t) (in vivo; po, 10 mg/kg): 8180 ± 795 ng·h/mL; Cmax (in vivo; po, 10 mg/kg): 735 ± 102 ng/mL; Tmax (in vivo; po, 10 mg/kg): 1.33 ± 0.58 h; bioavailability (in vivo; po, 10 mg/kg): 37.2 ± 3.62%; half-life (in vivo; po, 10 mg/kg): 5.84 ± 1.3 h
COC[C@@H](NC(=O)C1CCC(F)(F)CC1)C(=O)N[C@H](Cc1ccccc1)C(=O)C(=O)NCc1nccs1 [3v]	0.65	100	88.3	73.2	54.5	42.3	34.7	44.6	132 ± 19.8	159 ± 4.34	129 ± 13.4	3.55 ± 0.52	5.25 ± 2.13	7.63 ± 0.57	2830 ± 959	2570 ± 820	1700 ± 237	0.08	6.48 ± 2.63	9.49 ± 2.16	CC50 (in vitro [2]; human (BEAS-2B, African green monkey (VeroE6)), across BEAS-2B, VeroE6, and HUVEC cells, MTT): 129 to 159 µM; AUC(0-inf) (in vivo; po, 10 mg/kg): 14000 ± 783 ng·h/mL; AUC(0-t) (in vivo; po, 10 mg/kg): 12700 ± 1270 ng·h/mL; Cmax (in vivo; po, 10 mg/kg): 1010 ± 115 ng/mL; Tmax (in vivo; po, 10 mg/kg): 4 h; bioavailability (in vivo; po, 10 mg/kg): 49.2 ± 4.92%; half-life (in vivo; po, 10 mg/kg): 6.64 ± 1.17 h
COC[C@@H](NC(=O)CC1CC(F)(F)C1)C(=O)N[C@H](Cc1ccccc1)C(=O)C(=O)NCc1nccs1 [3x]	0.507	100	91.1	71.5	50.5	34.3	26.5	57.2	> 500	> 500	> 500	3.18 ± 0.53	3.28 ± 1.17	6.47 ± 0.50	2390 ± 645	2360 ± 639	1350 ± 116	0.08	7.3 ± 1.9	5.09 ± 0.57	AUC(0-inf) (in vivo; po, 10 mg/kg): 11200 ± 364 ng·h/mL; AUC(0-t) (in vivo; po, 10 mg/kg): 10800 ± 124 ng·h/mL; Cmax (in vivo; po, 10 mg/kg): 806 ± 75.4 ng/mL; Tmax (in vivo; po, 10 mg/kg): 2 h; bioavailability (in vivo; po, 10 mg/kg): 45.8 ± 0.52%; half-life (in vivo; po, 10 mg/kg): 4.67 ± 1.04 h
O=C(c1ccc(F)cc1)C1CCN(CCn2c(=O)[nH]c3ccccc3c2=O)CC1 [Ketanserin, reference compound]	0.373	–	86.9	62.2	38.1	24.4	15.9	77.6	–	–	–	–	–	–	–	–	–	–	–	–	–
CC(C)(C)[C@H](NC(=O)C(F)(F)F)C(=O)N1C[C@H]2[C@@H]([C@H]1C(=O)N[C@H](C#N)C[C@@H]1CCNC1=O)C2(C)C [Nirmatrelvir, reference compound]	0.407	100	86.5	60	38.7	26	18.6	71.2	–	–	–	–	–	–	–	–	–	–	–	–	EC50 (SARS-CoV-2 (BA.5)): 5.05 µM; EC50 (SARS-CoV-2 (BA.2)): 1.08 µM; EC50 (SARS-CoV-2 (B.1.1.7)): 49.4 µM; EC50 (SARS-CoV-2 (B.1.351)): 28.8 µM; EC50 (SARS-CoV-1): 7.66 µM; EC50 (MERS-CoV): 11.3 µM
CC(=O)CC(c1ccccc1)c1c(O)c2ccccc2oc1=O (centres unmarked) [Warfarin, reference compound]	–	–	–	–	–	–	–	–	–	–	–	–	–	–	–	–	–	–	–	–	fraction unbound (in vitro [4]): 0.009
